Assay results taken from US20110294721A1, “ANTIMICROBIAL PEPTIDES” (priority 2008, published 2011).
Several values for one entry are separate records, joined by “and”; a condition that tells them apart may be missing. Equal entries are not always repeated. No end group written: not given here.

Key:
Pseudomonas corrugata = settings: Table 2; for MIC: >90% inhibition, 1-2 days at 25° C.; for LC (lethal concentration): 100% inhibition after at least 4 days of incubation
Procedure: (§1) In-vitro inhibition assays were performed in sterile flat-bottom 96-well plates (Greiner bio-one, Frickenhausen). Antimicrobial peptides were dissolved in 0.01% acetic acid containing 0.2% BSA (500 μg/ml), filter sterilized and stored at −20° C. For inhibition assays dilutions of peptides ranging from 5 to 200 μg/ml were prepared and 10 μl (antibacterial assay) or 20 μl (antifungal assay) of each concentration was loaded per well.
(§2) Bacteria colonies from overnight agar plate cultures were resuspended into 5 ml LB-medium or HPG-medium (OD600 nm=0.08-0.1) and diluted into LB-medium/HPG-medium (1:100). 90 μl of this suspension containing about 10^5-10^6 CFU/ml of tested bacteria were added to each well resulting in final peptide concentrations of 0, 0.5, 1, 2, 5, 10, and 20 μg/ml. […] The lowest concentration, in which there is no observable growth (>90% inhibition) is referred to as minimal inhibitory concentration (MIC). […] For each peptide concentration two identical inhibition assays were performed.

[1] = test system: Clavibacter michiganensis; experiment: MIC and lethal concentration (LC) assay (Example 3); type: cell-based; settings: Table 2; for LC (lethal concentration): 100% inhibition after at least 4 days of incubation; for MIC: >90% inhibition, 1-2 days at 25° C.
Procedure: as §1, §2

[2] = test system: Pectobacterium carotovorum; experiment: as above; type: cell-based; settings: Table 2; for LC (lethal concentration): 100% inhibition after at least 4 days of incubation; for MIC: >90% inhibition, 1-2 days at 25° C.
Procedure: as §1, §2

[3] = test system: Pseudomonas syringae pv. syringae; experiment: as above; type: cell-based; settings: Table 2; for LC (lethal concentration): 100% inhibition after at least 4 days of incubation; for MIC: >90% inhibition, 1-2 days at 25° C.
Procedure: as §1, §2

[4] = test system: Pseudomonas syringae pv. tomato; experiment: as above; type: cell-based; settings: Table 2; for LC (lethal concentration): 100% inhibition after at least 4 days of incubation; for MIC: >90% inhibition, 1-2 days at 25° C.
Procedure: as §1, §2

Xanthomonas vesicatoria = experiment: as above; type: cell-based; settings: Table 2; for LC (lethal concentration): 100% inhibition after at least 4 days of incubation; for MIC: >90% inhibition, 1-2 days at 25° C.
Procedure: as §1, §2

[5] = test system: human immundeficiency virus (HIV); type: cell-based; settings: HeLa cells pre-treated 30 min at 37° C.; red fluorescence after 72 h; read-out: IC50, concentration where the infection is decreased by 50% (compared to non-treated controls)
Procedure: Cells were pretreated with 6.3 μg/ml SP13-3 and SP13-14 or buffer for 30 min at 37° C. before addition of virus particles. […] Shown is an overlay of pictures taken under transmitted light and fluorescence after 72 hours incubation. The viability of the HeLa cells was determined by measuring the activity of the mitochondrial dehydrogenase.
To measure the activity of the designed oligopeptides against human immundeficiency virus (HIV) a fluorescence-based reporter system was used. HeLa cells (LC5-RIC) harbour a reporter gene, which regulates in dependency of HIV Rev and Tat proteins the synthesis of a red fluorescing protein. In this way the infection of the HeLa cells (LC5-RIC) is indicated and the infection rate can be quantified using a fluorescence microplate reader.
(§3) Antimicrobial oligopeptides were dissolved in 0.01% acetic acid containing 0.2% BSA (500 μg/ml), filter sterilized and stored at −20° C. […] (in 5% CO2). Afterwards, virus particles were added to the pre-treated HeLa cells and the infection was quantified by measuring red fluorescence with a fluorescence microplate reader after 72 h incubation. The viability of the HeLa cells was determined by measuring the activity of the mitochondrial dehydrogenase according to Lindl and Bauer (1994) and Mosmann (1983).

HeLa cells (LC5-RIC) = type: cell-based, human
Procedure: as §3

| Substance | MIC (Pseudomonas corrugata) | LC (lethal concentration) [1] | MIC [1] | LC (lethal concentration) [2] | MIC [2] | LC (lethal concentration) [3] | MIC [3] | LC (lethal concentration) [4] | MIC [4] | LC (lethal concentration) (Xanthomonas vesicatoria) | MIC (Xanthomonas vesicatoria) | LC (lethal concentration) (Pseudomonas corrugata) | IC50 [5] [nM] | negative/toxic effect on test cells (HeLa cells) (HeLa cells (LC5-RIC)) |
| --- | --- | --- | --- | --- | --- | --- | --- | --- | --- | --- | --- | --- | --- | --- |
| KRRKLIKILKLIIKLIRKKR-NH2 [SP13-6] | 2.5 µg/mL | 1.0 µg/mL | 0.1 µg/mL | >10/>10 μg/ml | >10/>10 μg/ml | 2.5 µg/mL | 1.0 µg/mL | 5.0 µg/mL | 2.5 µg/mL | 0.5 µg/mL | 0.1 µg/mL |  |  |  |
| KRRLALFRAFRLALKSVLKK-NH2 [SP13-10] | 0.25 µg/mL | 0.25 µg/mL | 0.1 µg/mL | >10/>10 μg/ml | >10/>10 μg/ml | >10/>10 μg/ml | >10/>10 μg/ml | 1.0/1.0 μg/ml | 1.0/1.0 μg/ml | 0.25 µg/mL | 0.1 µg/mL | 0.5 µg/mL |  |  |
| KRRLALFRLFRLALKLVLKK-NH2 [SP13-11] | >10/>10 μg/ml | 2.5/2.5 μg/ml | 2.5/2.5 μg/ml | >10/>10 μg/ml | >10/>10 μg/ml | >10/>10 μg/ml | >10/>10 μg/ml | 5.0 µg/mL | 2.5 µg/mL | 5.0 µg/mL | 2.5 µg/mL | >10/>10 μg/ml | 2100 | No negative/toxic effect |
| KRRLFLFRLFRLFLRLFLKK-NH2 [SP13-12] | 10/>10 μg/ml | 5.0 µg/mL | 2.5 µg/mL | >10/>10 μg/ml | >10/>10 μg/ml | >10/>10 μg/ml | >10/>10 μg/ml | > 10 µg/mL | 5.0 µg/mL | 5.0 µg/mL | 2.5 µg/mL | 10/>10 μg/ml |  |  |
| KRRLIARILRLAIRALVKKR-NH2 [SP13-1] | 2.5/2.5 μg/ml | 2.5 µg/mL | 0.5 µg/mL | >10//>10 μg/ml | >10//>10 μg/ml | 2.5 µg/mL | 1.0 µg/mL | 5.0 µg/mL and > 10 µg/mL | 1.0 µg/mL | 1.0 µg/mL | 0.5 µg/mL | 2.5/2.5 μg/ml |  |  |
| KRRLIFRILKLFFRFLVKKR-NH2 [SP13-4] | 5.0 µg/mL | 2.5 µg/mL | 1.0 µg/mL | >10/>10 μg/ml | >10/>10 μg/ml | 10/>10 μg/ml | 10/>10 μg/ml | >10/>10 μg/ml | >10/>10 μg/ml | 2.5/2.5 μg/ml | 2.5/2.5 μg/ml | > 10 µg/mL |  |  |
| KRRLILRILRLAIRALVKKR-NH2 [SP13-2] | 5.0/5.0 μg/ml | 1.0 µg/mL | 0.25 µg/mL | >10/>10 μg/ml | >10/>10 μg/ml | 10 µg/mL | 5.0 µg/mL | 10/>10 μg/ml | 10/>10 μg/ml | 0.5 µg/mL | 0.25 µg/mL | 5.0/5.0 μg/ml |  |  |
